Results reported in the NIST ThermoML archive (doi:10.1016/j.tca.2015.06.017).

Assay: xn = mol fraction of the nth substance listed
Conditions: Liquid, Vibrating tube method

CCCCCl [1-chlorobutane] + CCCCCCC
mass density [kg/m3]
Conditions | 283.15 K | 293.15 K | 298.15 K
100 kPa, x2 = 0.0508 | 882.75 | 871.93 | 866.47
100 kPa, x2 = 0.0994 | 869.33 | 858.68 | 853.29
100 kPa, x2 = 0.2013 | 842.84 | 832.5 | 827.27
100 kPa, x2 = 0.3015 | 818.82 | 808.71 | 803.67
100 kPa, x2 = 0.4008 | 796.7 | 786.9 | 781.96
100 kPa, x2 = 0.5026 | 775.72 | 766.2 | 761.38
100 kPa, x2 = 0.6012 | 756.89 | 747.61 | 742.88
100 kPa, x2 = 0.7003 | 739.21 | 730.17 | 725.57
100 kPa, x2 = 0.7995 | 722.69 | 713.87 | 709.43
100 kPa, x2 = 0.9011 | 706.94 | 698.34 | 694
100 kPa, x2 = 0.9494 | 699.8 | 691.32 | 687.02
2000 kPa, x2 = 0.0508 | 884.62 | 873.92 | 868.56
2000 kPa, x2 = 0.0994 | 871.23 | 860.68 | 855.4
2000 kPa, x2 = 0.2013 | 844.73 | 834.49 | 829.39
2000 kPa, x2 = 0.3015 | 820.72 | 810.76 | 805.75
2000 kPa, x2 = 0.4008 | 798.63 | 788.97 | 784.08
2000 kPa, x2 = 0.5026 | 777.65 | 768.2 | 763.54
2000 kPa, x2 = 0.6012 | 758.81 | 749.57 | 745
2000 kPa, x2 = 0.7003 | 741.14 | 732.18 | 727.68
2000 kPa, x2 = 0.7995 | 724.62 | 715.87 | 711.52
2000 kPa, x2 = 0.9011 | 708.86 | 700.31 | 696.1
2000 kPa, x2 = 0.9494 | 701.72 | 693.28 | 689.1
5000 kPa, x2 = 0.0508 | 887.46 | 876.95 | 871.65
5000 kPa, x2 = 0.0994 | 874.03 | 863.68 | 858.46
5000 kPa, x2 = 0.2013 | 847.53 | 837.52 | 832.44
5000 kPa, x2 = 0.3015 | 823.49 | 813.71 | 808.8
5000 kPa, x2 = 0.4008 | 801.35 | 791.93 | 787.1
5000 kPa, x2 = 0.5026 | 780.38 | 771.16 | 766.44
5000 kPa, x2 = 0.6012 | 761.44 | 752.54 | 747.93
5000 kPa, x2 = 0.7003 | 743.76 | 735.08 | 730.59
5000 kPa, x2 = 0.7995 | 727.26 | 718.74 | 714.37
5000 kPa, x2 = 0.9011 | 711.45 | 703.17 | 698.9
5000 kPa, x2 = 0.9494 | 704.3 | 696.13 | 691.9
7000 kPa, x2 = 0.0508 | 889.28 | 878.92 | 873.68
7000 kPa, x2 = 0.0994 | 875.85 | 865.65 | 860.48
7000 kPa, x2 = 0.2013 | 849.37 | 839.47 | 834.46
7000 kPa, x2 = 0.3015 | 825.31 | 815.63 | 810.76
7000 kPa, x2 = 0.4008 | 803.16 | 793.83 | 789.09
7000 kPa, x2 = 0.5026 | 782.19 | 773.03 | 768.42
7000 kPa, x2 = 0.6012 | 763.28 | 754.35 | 749.89
7000 kPa, x2 = 0.7003 | 745.54 | 736.9 | 732.52
7000 kPa, x2 = 0.7995 | 729.04 | 720.57 | 716.31
7000 kPa, x2 = 0.9011 | 713.2 | 704.95 | 700.8
7000 kPa, x2 = 0.9494 | 706.05 | 697.9 | 693.79
10000 kPa, x2 = 0.0508 | 891.99 | 881.85 | 876.62
10000 kPa, x2 = 0.0994 | 878.55 | 868.56 | 863.41
10000 kPa, x2 = 0.2013 | 852.02 | 842.33 | 837.33
10000 kPa, x2 = 0.3015 | 827.93 | 818.52 | 813.6
10000 kPa, x2 = 0.4008 | 805.75 | 796.66 | 791.87
10000 kPa, x2 = 0.5026 | 784.72 | 775.83 | 771.16
10000 kPa, x2 = 0.6012 | 765.77 | 757.17 | 752.57
10000 kPa, x2 = 0.7003 | 748.04 | 739.62 | 735.16
10000 kPa, x2 = 0.7995 | 731.51 | 723.28 | 718.95
10000 kPa, x2 = 0.9011 | 715.65 | 707.66 | 703.38
10000 kPa, x2 = 0.9494 | 708.47 | 700.58 | 696.37
20000 kPa, x2 = 0.0508 | 900.53 | 890.77 | 885.92
20000 kPa, x2 = 0.0994 | 887.08 | 877.47 | 872.69
20000 kPa, x2 = 0.2013 | 860.48 | 851.18 | 846.51
20000 kPa, x2 = 0.3015 | 836.34 | 827.25 | 822.71
20000 kPa, x2 = 0.4008 | 814.1 | 805.35 | 800.83
20000 kPa, x2 = 0.5026 | 793.03 | 784.43 | 780.1
20000 kPa, x2 = 0.6012 | 773.97 | 765.68 | 761.37
20000 kPa, x2 = 0.7003 | 756.2 | 748.06 | 743.91
20000 kPa, x2 = 0.7995 | 739.54 | 731.66 | 727.56
20000 kPa, x2 = 0.9011 | 723.61 | 715.92 | 711.9
20000 kPa, x2 = 0.9494 | 716.4 | 708.79 | 704.84
30000 kPa, x2 = 0.0508 | 908.4 | 899 | 894.38
30000 kPa, x2 = 0.0994 | 894.89 | 885.66 | 881.09
30000 kPa, x2 = 0.2013 | 868.22 | 859.31 | 854.8
30000 kPa, x2 = 0.3015 | 843.95 | 835.33 | 830.93
30000 kPa, x2 = 0.4008 | 821.67 | 813.25 | 808.96
30000 kPa, x2 = 0.5026 | 800.5 | 792.34 | 788.14
30000 kPa, x2 = 0.6012 | 781.4 | 773.46 | 769.31
30000 kPa, x2 = 0.7003 | 763.51 | 755.75 | 751.75
30000 kPa, x2 = 0.7995 | 746.78 | 739.24 | 735.28
30000 kPa, x2 = 0.9011 | 730.75 | 723.44 | 719.55
30000 kPa, x2 = 0.9494 | 723.48 | 716.27 | 712.41
40000 kPa, x2 = 0.0508 | 915.72 | 906.7 | 902.26
40000 kPa, x2 = 0.0994 | 902.19 | 893.3 | 888.92
40000 kPa, x2 = 0.2013 | 875.41 | 866.83 | 862.54
40000 kPa, x2 = 0.3015 | 851.07 | 842.76 | 838.54
40000 kPa, x2 = 0.4008 | 828.73 | 820.58 | 816.49
40000 kPa, x2 = 0.5026 | 807.4 | 799.52 | 795.57
40000 kPa, x2 = 0.6012 | 788.26 | 780.6 | 776.69
40000 kPa, x2 = 0.7003 | 770.26 | 762.81 | 759
40000 kPa, x2 = 0.7995 | 753.48 | 746.17 | 742.45
40000 kPa, x2 = 0.9011 | 737.36 | 730.25 | 726.58
40000 kPa, x2 = 0.9494 | 730.05 | 723.03 | 719.41
50000 kPa, x2 = 0.0508 | 922.47 | 913.76 | 909.49
50000 kPa, x2 = 0.0994 | 908.9 | 900.34 | 896.12
50000 kPa, x2 = 0.2013 | 882.07 | 873.81 | 869.69
50000 kPa, x2 = 0.3015 | 857.66 | 849.63 | 845.59
50000 kPa, x2 = 0.4008 | 835.21 | 827.43 | 823.5
50000 kPa, x2 = 0.5026 | 813.85 | 806.3 | 802.4
50000 kPa, x2 = 0.6012 | 794.6 | 787.26 | 783.45
50000 kPa, x2 = 0.7003 | 776.55 | 769.39 | 765.7
50000 kPa, x2 = 0.7995 | 759.63 | 752.7 | 749.08
50000 kPa, x2 = 0.9011 | 743.44 | 736.68 | 733.13
50000 kPa, x2 = 0.9494 | 736.1 | 729.41 | 725.89
60000 kPa, x2 = 0.0508 | 928.92 | 920.42 | 916.33
60000 kPa, x2 = 0.0994 | 915.32 | 906.99 | 902.96
60000 kPa, x2 = 0.2013 | 888.42 | 880.39 | 876.46
60000 kPa, x2 = 0.3015 | 863.89 | 856.15 | 852.33
60000 kPa, x2 = 0.4008 | 841.39 | 833.88 | 830.1
60000 kPa, x2 = 0.5026 | 819.91 | 812.63 | 809.01
60000 kPa, x2 = 0.6012 | 800.58 | 793.52 | 790
60000 kPa, x2 = 0.7003 | 782.47 | 775.64 | 772.14
60000 kPa, x2 = 0.7995 | 765.51 | 758.87 | 755.42
60000 kPa, x2 = 0.9011 | 749.23 | 742.77 | 739.4
60000 kPa, x2 = 0.9494 | 741.85 | 735.46 | 732.12
65000 kPa, x2 = 0.0508 | 931.98 | 923.76 | 919.61
65000 kPa, x2 = 0.0994 | 918.36 | 910.28 | 906.21
65000 kPa, x2 = 0.2013 | 891.39 | 883.59 | 879.69
65000 kPa, x2 = 0.3015 | 866.87 | 859.28 | 855.51
65000 kPa, x2 = 0.4008 | 844.29 | 836.95 | 833.25
65000 kPa, x2 = 0.5026 | 822.81 | 815.67 | 812.1
65000 kPa, x2 = 0.6012 | 803.45 | 796.5 | 793.04
65000 kPa, x2 = 0.7003 | 785.25 | 778.5 | 775.16
65000 kPa, x2 = 0.7995 | 768.28 | 761.67 | 758.43
65000 kPa, x2 = 0.9011 | 751.95 | 745.52 | 742.37
65000 kPa, x2 = 0.9494 | 744.53 | 738.19 | 735.07
